Laboratory results: PMC4028696, “Development of a screen to identify selective small molecules active against patient-derived metastatic and chemoresistant breast cancer cells” (Breast Cancer Research : BCR, 2013)

Columns and labels:
[1] = tested on: PE1007070 cells; experiment: Live/dead assay, monolayer; assay type: cell-based, human; conditions: 20 μM, five days, vs DMSO
Procedure: (§1) The hTERT-HMEC and PE1007070 cells were seeded in black wall clear bottom 96-well plates (Greiner Bio-one, Monroe, NC, USA) in 100 μL of modified M87 media at varying densities to achieve 80% to 90% confluency at the end of the assay. After 24 hours, the media were aspirated and the cells were treated with 20 μM C-6 or the corresponding 0.02% (v/v) DMSO vehicle control. After culturing for five days, the viability and cytotoxicity was determined with the Live/dead assay (Life Technologies) according to the manufacturer's instructions. Briefly, the media were aspirated and the cells were treated with 4 μM Calcein-AM and 8 μM Ethidium homodimer-1 diluted in (D)MEM/F12 for 30 minutes at 37°C. Subsequent imaging was performed with an IX81 microscope (Olympus, Center Valley, PA, USA) running Slide Book 5.0 software (Intelligent Imaging Innovations, Denver, CO, USA).

[2] = tested on: hTERT-HMEC cells; experiment: Live/dead assay, monolayer; assay type: cell-based, human; conditions: 20 μM, five days
Procedure: as §1

[3] = Solubility (stated property); assay type: physicochemical
[4] = tested on: cleaved caspase-3, caspase-8, cleaved caspase-9, and PARP; experiment: Western blot for caspase and PARP cleavage; assay type: cell-based, human; conditions: 30 μM, 48 hours, cell lines, hTERT-HMEC and PE cells
Procedure: Cells were lysed in cold radioimmunoprecipitation assay buffer (50 mM Tris HCl, 150 mM NaCl, 0.1% sodium dodecyl sulfate (SDS), 0.5% sodium deoxycholate, 1% Triton X-100, pH = 8.0) supplemented with protease inhibitor cocktail (Sigma), phosphatase inhibitor cocktail 2 (Sigma) and 1 mM dithiothreitol (DTT) (Sigma). The lysate was sonicated for 30 seconds using a 450 Sonifier (Branson Ultrasonics, Danbury, CT, USA) and was centrifuged at 14,000 RPM for five minutes at 4°C. The protein concentration was determined using the BCA protein assay kit (Peirce, Rockford, IL, USA) and the samples were boiled for five minutes with 4× SDS Laemmli buffer. Equal amounts of protein were resolved on SDS polyacrylamide gels and transferred to an Immobilon-FL PVDF membrane (EMD Millipore). Blots were blocked in Odyssey Blocking Buffer (LI-COR, Lincoln, NE, USA) for one hour at room temperature, stained with primary antibodies overnight at 4°C, washed, and stained with IR800CW or IR680 anti-mouse or rabbit secondary antibodies (LI-COR) for one hour at room temperature. Blots were imaged with the Odyssey Infrared Imaging System (LI-COR). […]

[5] = tested on: PE1008032 cells; experiment: Dose response assay, ATPlite viability, four days; assay type: cell-based, human; conditions: Homo sapiens, 96 h, PE1008032, four days of treatment, ATP viability
Procedure: (§2) Cells were seeded in white 96-well plates (Costar, Tewksbury, MA, USA) in 100 μL of their respective media at varying densities to achieve 80% to 90% confluency after five days in culture. The compounds dissolved in DMSO were diluted in their corresponding media containing 2% FBS and an EP Motion 5075 (Eppendorf North America, Hauppauge, NY, USA) liquid handler was utilized to perform a serial dilution. […] After the cells were cultured for 24 hours, the media were aspirated and the cells were treated with the compounds and vehicle controls in triplicate. After four days of treatment, viability was determined utilizing the ATPlite 1step assay system (Perkin Elmer, Waltham, MA, USA) according to the manufacturer's instructions. Luminescence measurements were acquired utilizing a Perkin Elmer 2104 EnVision plate reader. Raw luminescence values were normalized to the DMSO vehicle control wells.

[6] = tested on: MCF-7 cells; experiment: Dose response assay, ATPlite viability, four days; assay type: cell-based, human; conditions: Homo sapiens, MCF7, 96 h; MCF-7, four days of treatment, ATP viability
Procedure: as §2

[7] = tested on: MCF-10A cells; experiment: BrdU proliferation and cell cycle analysis; assay type: cell-based, human; conditions: 15 μM, 24 or 48 hours vs DMSO
Procedure: (§3) Cells were seeded in six-well plates (BD Falcon) in their respective media at different densities to attain 70% to 80% confluency at the end of the assay. In order to compare the proliferation rate of established cell lines compared to patient-derived cells, 10 μM of 5-bromo-2-deoxyuridine (BrdU) (Sigma) was added to the culture media for 30 minutes or 6 hours in triplicate. To determine the impact of C-6 on the cell cycle, cells were treated with 15 μM C-6 or 0.02% (v/v) DMSO vehicle in the corresponding media containing 2% FBS for 24 and 48 hours in triplicate followed by treatment with 10 μM BrdU for 30 minutes. Immediately following BrdU treatment, floating cells were collected and adherent cells were trypsinized. Floating and adherent cells were combined, washed with HBSS containing 2% FBS, fixed with 70% ethanol and stored overnight at -20°C. Cells were then treated with 2 M HCl containing 0.5% Triton X-100 (EMD Millipore) for 30 minutes at room temperature and were washed with 0.1 M sodium tetraborate (Sigma) at pH = 8.5. Next, cells were blocked with staining buffer, which consisted of 1% BSA, 0.5% Tween-20 (Fisher Scientific) in PBS, for five minutes and were stained with a mouse monoclonal BrdU antibody (Developmental Studies Hybridoma Bank, Iowa City, IA, USA) for one hour on ice. Cells were subsequently washed and stained with anti-mouse Alexa Fluor® 488 (Life Technologies) for 30 minutes on ice, washed, stained with 5 μg/mL of propidium iodide (EMD Millipore) and passed through a 70-μm cell strainer. Cell suspensions were analyzed using a FACScan flow cytometer and the resulting data were analyzed with Flow Jo software. The average ± SD of three wells for each condition was calculated.

[8] = tested on: T47D cells; experiment: BrdU proliferation and cell cycle analysis; assay type: cell-based, human; conditions: 15 μM, 24 or 48 hours vs DMSO
Procedure: as §3

[9] = tested on: MCF-7 cells; experiment: BrdU proliferation and cell cycle analysis; assay type: cell-based, human; conditions: MCF-7, 15 μM, 24 or 48 hours vs DMSO
Procedure: as §3

[10] = tested on: MDA-MB-231 cells; experiment: BrdU proliferation and cell cycle analysis; assay type: cell-based, human; conditions: MDA-MB-231, 15 μM, 24 or 48 hours vs DMSO
Procedure: as §3

solubility [3]: poor solubility
EC50 [6]: 11 µM
Structure (SMILES): COc1cc(OC)cc(C(C)c2ccc(NC(=O)OC(C)(C)C)cc2)c1 (stereo not shown) [C-6]
number of dead cells [1]: led to an increase in the number of dead cells
morphology and dead (ethidium positive) cells [2]: did not induce a gross morphological phenotype in the hTERT-HMECs or a significant increase in dead (ethidium bromide positive) cells
cleavage of caspase-3, -8, -9, or PARP [4]: did not induce cleavage
EC50 [5]: 33.3 µM
cell cycle profile [7]: did not show a statistically significant difference
percentage of cells in G1/G0 [8]: increased
percentage of cells in G1/G0 [9]: increased
percentage of cells in G1/G0 [10]: increased
